# Key:
# [1] = Rat ocular distribution model, retina after topical drop; type: in vivo; conditions: Lewis rats, 10 μL topical drop
# Procedure: Eye drops were prepared by adding compounds at a theoretical concentration of 10 mg/mL to a 2 mL microcentrifuge tube before adding a stir bar and the selected formulation that consisted of (w/v) hydroxypropyl β-cyclodextrin (Trappsol) (20%), hydroxyl propyl methylcellulose (0.5%) and EDTA (1.6 mM) in phosphate buffered saline. Tubes containing compound in eye drop formulation were heated to 60-65° C. and stirred at least 4 hours to overnight. The tubes were removed from the heat bath and centrifuged at 10,000 ref for 5 minutes to clear the solution of any residual drug not in solution. The supernatant was removed from the tubes and one 10 μL sample was removed for HPLC analysis of solubilized by HPLC using an ACE C18 column (4.5 mm×150 mm, 5 m), eluted with acetonitrile/methanol/water mixture with H3PO4, pH 3.5 (50:30:20) with a flow rate of 2.5 mL/min. The solubilized concentration of each compound was calculated by interpolation from a standard curve based on reference standards solubilized in methanol when the assay was validated.
# Compounds were applied as a single 10 μL drop to rats and the aqueous humor, and the posterior segment of the eye (vitreous body and retina) were collected from each eye at the time point assigned after the eye was irrigated to remove any residual formulation present. Tissues were collected in pre-weighed collection tubes and the tissue weight was determined for each sample. An internal standard (IS) mixture containing a reference compound at a ratio of 1 μL to 4 mg tissue was added to samples, mixed and then diluted×4.25 in acetonitrile:methanol (9:1). Aqueous humour samples were vortex mixed for 10 s. The vitreous body & retina were vortex mixed 2 times each for 10 s, and further mixed for 6 min on a tabletop shaker at 750 rpm followed by final vortex mixing (10 s). All samples were centrifuged to pellet any particulate matter and the supernatant was transferred to LC vials. A 10 μL sample was then applied to the HPLC during LC/MS/MS analysis. A calibration curve for compounds (0.588-176.471 ng/mL) was prepared in rat plasma to estimate concentrations of compounds in each of the matrices analyzed using the area under curve (AUC) normalized to internal standard AUC for determining response. The assumption was made that 1 mg tissue is equivalent to 1 μL plasma. Concentrations measured in each tissue were then normalized to the amount of drug applied to account for differences in solubilized drug in each formulation. The average concentration and the standard deviation was determined based on “n”=number of eyes assessed, rather than the number of animals. […]
# [2] = molecular target: T1, recombinant human leukotriene A4 hydrolase enzyme (Homo sapiens, UniProt P09960); experiment: Amino-peptidase assay, alanine-4-nitroanalide; type: biochemical; conditions: negative values = augmented peptidase activity, read-out: % Inhibition aminopeptidase-Alanine-4-nitroanalide activity of LTA4H (3 μM)
# T1 construct: purchased Cayman Chemical 10007817
# T1 sequence (P09960 1-611): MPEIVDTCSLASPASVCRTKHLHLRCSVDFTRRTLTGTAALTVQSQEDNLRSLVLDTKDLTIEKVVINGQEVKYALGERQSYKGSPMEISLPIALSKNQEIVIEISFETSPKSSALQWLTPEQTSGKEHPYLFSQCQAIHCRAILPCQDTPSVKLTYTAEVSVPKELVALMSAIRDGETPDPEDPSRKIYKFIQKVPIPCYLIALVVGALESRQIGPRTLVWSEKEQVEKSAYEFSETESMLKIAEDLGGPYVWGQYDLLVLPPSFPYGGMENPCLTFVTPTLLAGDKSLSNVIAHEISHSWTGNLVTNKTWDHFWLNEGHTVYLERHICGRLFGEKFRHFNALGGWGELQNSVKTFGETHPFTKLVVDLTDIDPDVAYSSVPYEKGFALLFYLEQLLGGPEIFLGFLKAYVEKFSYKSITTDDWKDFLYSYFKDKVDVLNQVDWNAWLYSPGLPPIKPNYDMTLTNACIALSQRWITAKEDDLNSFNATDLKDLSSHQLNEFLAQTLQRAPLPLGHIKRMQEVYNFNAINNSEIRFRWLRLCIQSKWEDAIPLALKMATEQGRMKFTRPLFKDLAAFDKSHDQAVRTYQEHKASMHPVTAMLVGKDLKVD
# How it was run: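 Compounds pre-incubated in the dark with recombinant human LTA4H (0.5 μg) in 50 mM Tris-HCl, 100 mM KCl; reaction started with alanine-4-nitroanilide (6 mM solution). Aminopeptidase rate followed as A405 from 4-nitroaniline, referenced to a standard; inhibition calculated versus controls, with negative values indicating augmented activity.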
inhibition at 3 µM [2],Compound,Concentration of compound in retina 0.5 hr after administration per mg compound applied (Avg ± SD) n = 2 [1]
-50 to 100%,"CCC(O)(CCc1ccc(Oc2nc3c(SC)cccc3s2)c(OC)c1)C(F)(F)F (stereo not drawn) [Compound 104, 1-{3-methoxy-4-[(4-methylsulfanyl-1,3-benzothiazol-2-yl)oxy]phenyl}-3-(trifluoromethyl)pentan-3-ol]",3340 ± 1061 ng/mL per mg compound applied
> 75%,"CC(O)(CCc1ccc(OCc2ccc3ccccc3n2)cc1)C(F)(F)F (stereo not drawn) [Compound 183, 1,1,1-trifluoro-2-methyl-4-[4-(quinolin-2-ylmethoxy)phenyl]butan-2-ol]",–

# Reference: patent publication US12686668B2, “Leukotriene synthesis inhibitors” (Naegis Pharmaceuticals Inc., priority 2019, dated 2026)
